US8173653B2, “Pyridiazinone derivatives for the treatment of tumours” (Merck Patent Gesellschaft MIT Beschraenkter Haftung, priority 2005, dated 2012)

Columns and labels:
[1] = tested on: TPR-Met/NIH3T3 cells; test: In-vivo test: subcutaneous TPR-Met/NIH3T3 tumour in Balb/C mice, tumour volume; conditions: female Balb/C mice, 200 mg/kg daily by gastric tube, 9 days
Description: Experimental procedure: Female Balb/C mice (breeder: Charles River Wiga) were 5 weeks old on arrival. They were acclimatised to our keeping conditions for 7 days. Each mouse was subsequently injected subcutaneously in the pelvic area with 4 million TPR-Met/NIH3T3 cells in 100 μl of PBS (without Ca++ and Mg++).
Measurement of the tumour volume: The length (L) and breadth (B) were measured using a Vernier calliper, and the tumour volume was calculated from the formula L×B×B/2.
Keeping conditions: 4 or 5 animals per cage, feeding with commercial mouse food (Sniff).

[2] = target: T1, Met kinase (Homo sapiens, UniProt P08581); test: Met kinase inhibition (enzyme assay), flashplate method; type: biochemical
T1 construct: 6His (N); purchased Upstate 14-526; host or cells: insect cells (Sf21; S. frugiperda), baculovirus
T1 sequence (P08581 974-1390 limits assumed): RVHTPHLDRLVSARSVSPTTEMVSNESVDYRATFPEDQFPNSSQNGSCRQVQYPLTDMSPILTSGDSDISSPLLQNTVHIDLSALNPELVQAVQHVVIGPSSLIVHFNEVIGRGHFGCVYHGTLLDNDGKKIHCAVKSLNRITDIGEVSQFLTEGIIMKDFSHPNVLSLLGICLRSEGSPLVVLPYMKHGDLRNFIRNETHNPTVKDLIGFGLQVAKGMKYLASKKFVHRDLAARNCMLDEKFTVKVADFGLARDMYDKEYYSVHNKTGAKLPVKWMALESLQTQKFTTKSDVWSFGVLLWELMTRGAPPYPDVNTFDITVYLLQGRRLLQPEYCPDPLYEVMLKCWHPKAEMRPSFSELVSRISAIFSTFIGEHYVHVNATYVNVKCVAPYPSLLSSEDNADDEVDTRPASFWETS
Description: Flashplate Method (Met Kinase)
The test plates used are 96-well Flashplate® microtitre plates from Perkin Elmer (Cat. No. SMP200). The components of the kinase reaction described below are pipetted into the assay plate. The Met kinase and the substrate poly Ala-Glu-Lys-Tyr, (PAGLT, 6:2:5:1), are incubated for 3 hrs at room temperature with radioactively labelled ^33P-ATP in the presence and absence of test substances in a total volume of 100 μl. The reaction is terminated using 150 μl of a 60 mM EDTA solution. After incubation for a further 30 min at room temperature, the supernatants are filtered off with suction, and the wells are washed three times with 200 μl of 0.9% NaCl solution each time. The measurement of the bound radioactivity is carried out by means of a scintillation measuring instrument (Topcount NXT, Perkin-Elmer).
The full value used is the inhibitor-free kinase reaction. This should be approximately in the range 6000-9000 cpm. The pharmacological zero value used is staurosporin in a final concentration of 0.1 mM. The inhibitory values (IC50) are determined using the RS1_MTS program.
Kinase reaction conditions per well: • 30 μl of assay buffer • 10 μl of substance to be tested in assay buffer with 10% of DMSO • 10 μl of ATP (final concentration 1 μM cold, 0.35 μCi of ^33P-ATP) • 50 μl of Met kinase/substrate mixture in assay buffer; (10 ng of enzyme/well, 50 ng of pAGLT/well)
Assay Buffer: • 50 mM HEPES • 3 mM magnesium chloride • 3 μM sodium orthovanadate • 3 mM manganese(II) chloride • 1 mM dithiothreitol (DTT) • pH=7.5 (to be set using sodium hydroxide)

IC50 [2]: 0.01 to 1 µM
Compound: CN1CCN(CCCOC(=O)Nc2cccc(Cn3nc(-c4cc(F)cc(F)c4)ccc3=O)c2)CC1 [A91, 3-(4-Methylpiperazin-1-yl)propyl {3-[3-(3,5-difluorophenyl)-6-oxo-6H-pyridazin-1-ylmethyl]phenyl}carbamate]
antitumoural action (tumour volume) [1]: significant antitumoural action
